From patent US20230097475A1, “TREATMENT FOR CHONDRODYSTROPHIA” (Kyoto University, priority 2020, published 2023)

Key:
[1] = test system: FGFR3 ACH mice; experiment: Bone extension effect using achondroplasia model mouse (Example 2); format: in vivo
Protocol: (§1) FGFR3 ACH mice (Naski, M. C. et al., Development, 1998, 125(24): 4977-88; hereinbelow, simply referred to as ACH mice) were used. FVB strain ACH mice were subjected to artificial insemination to produce a large number of F1 hybrid mice. Genomic DNA was then extracted, and the gene type was determined by a PCR method. […] Mice at the age of 43 days were euthanized, and the weight measurement and the bone (femur, tibia, and ulna) length measurement by X-ray photographing were performed. The X-ray photographing was performed using a Faxitron X-Ray DX-50 (AcroBio Corporation), and the measurements were performed with Image J. For testing significance, a Dunnett's multiple comparison test was conducted. In FIGS. 1 to 5, * indicates p<0.05, ** indicates p<0.01, and *** indicates p<0.001.
Subsequently, the femur was isolated from the mice after dosing. The cartilage growth plate was then stained with safranin O, and the length thereof was measured. The average width of the growth plate of ACH mice was 148.3.

[2] = test system: FGFR3 ACH mice; experiment: Bone extension effect using achondroplasia model mice, male and female (Example 3); format: in vivo; conditions: male 1, 3 or 10 mg/kg, female 1, 3 or 6 mg/kg, measured at 43 days old, vs vehicle group
Protocol: as §1
For testing significance, a Dunnett's multiple comparison test was conducted. In FIGS. 6 to 11, * indicates p<0.05, ** indicates p<0.01, *** indicates p<0.001, and **** indicates p<0.0001.

[3] = test system: TD1-iPS cells and ACH-iPS cells; experiment: Drug efficacy in disease iPS cell models, chondrocyte differentiation; format: cell-based, human
Source text: iPS cell lines were established from dermal fibroblasts of patients with thanatophoric dysplasia type I (TD1, R248C) and cartilage intangibility (ACH, […]), and dermal fibroblasts of healthy individuals, and induced their differentiation into chondrocytes. Cartilage tissue was formed from healthy iPS cells, whereas a cartilage component was reduced in tissue induced from TD1-iPS cells and tissue induced from ACH-iPS cells (Yamashita et al., Nature, 2014, 513 (7519): 507-11).
Rosuvastatin was used as a positive control. As evaluation items, tissue section staining (Safranin staining), and the expression of mRNAs of COL2A1 and Aggrecan (ACAN) were used as indexes. For testing significance, an unpaired test was conducted. In FIG. 13, * indicates p<0.05.

[4] = test system: FGFR3^Y367C/+ mouse model of achondroplasia; conditions: reported in NPL 6; cited from earlier work
[5] = biological target: mutant FGFR3G^380R/+; conditions: at 50 nM; cited from earlier work
[6] = 1 nM, 10th week of differentiation induction, vs cells free of Compound 1, FIG. 13

Row | SMILES | Average width of the femur growth plate (safranin O staining) ([1]; ACH mice after dosing, dose not stated, ACH mice without compound 148.3, FIG. 4) [μm] | Bone extension effect (femur, tibia, ulna length; growth plate cartilage thickness) ([1]; ACH mice, 0.1, 1 or 3 mg/kg intraperitoneal once a day, 5 days on 2 days off, age 21 to 42 days, measured at 43 days old, vs vehicle group) | Bone extension effect (femur, tibia, ulna length) [2] | Safranin staining of glycosaminoglycans (cartilage extracellular matrix) ([3]; 1 nM added at each medium change from day 3, analysis at 10th week of differentiation induction, FIG. 12) | Expression of mRNA of ACAN [3, 6] | Expression of mRNA of COL2A1 [3, 6] | Treatment effect on mouse model of achondroplasia [4] | Kinase inhibitory effect [5]
1 | C=CC(=O)N1CC[C@H](n2nc(C#Cc3cc(OC)cc(OC)c3)c3c(N)ncnc32)C1 [Compound 1, 1-[(3S)-3-[4-amino-3-[2-(3,5-dimethoxyphenyl)ethynyl]-1H-pyrazolo[3,4-d]pyrimidin-1-yl]-1-pyrrolidinyl]-2-propen-1-one] | 206.4 | concentration-dependent bone extension effect was observed | concentration-dependent bone extension effect was observed | positive safranin staining image was observed | increased | increased | – | –
2 | CCN1CCN(c2ccc(Nc3cc(N(C)C(=O)Nc4c(Cl)c(OC)cc(OC)c4Cl)ncn3)cc2)CC1 [NVP-BGJ398] | – | – | – | – | – | – | has a treatment effect | has a kinase inhibitory effect
